Each structure is given as a SMILES string.

Chain of PHD2 (Q9GZT9 181-426): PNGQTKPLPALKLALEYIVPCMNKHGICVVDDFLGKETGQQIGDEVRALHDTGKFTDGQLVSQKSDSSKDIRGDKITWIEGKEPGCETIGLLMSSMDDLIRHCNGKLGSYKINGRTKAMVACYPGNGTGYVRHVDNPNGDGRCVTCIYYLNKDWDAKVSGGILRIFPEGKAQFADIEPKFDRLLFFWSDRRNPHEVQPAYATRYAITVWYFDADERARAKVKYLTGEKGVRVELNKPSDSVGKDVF

The test addresses PHD2 (Homo sapiens (Human), UniProt Q9GZT9). The test can be described thus: PHD2 RF-MS (RapidFire LC-MS) hydroxylation assay. It counts as biochemical. The procedure: In brief, cDNA encoding for the catalytic domain of tPHD2 (181-426 residues) was cloned into the pET28a (+)/pET24a (+) vectors (Novagen), to enable production of tPHD2 (residues 181-426) protein with/without an N-terminal His6-tag. The tPHD2 (residues 181-426) encoding construct was transformed into the Escherichia coli BL21 DE3 cell line; protein production was induced with 0.5 mM […] (3-5 hr at 28° C.). […] The protein was exchanged into 50 mM Tris-HCl buffer (pH 7.5) and concentrated to % 40 mg/ml.
Tris(hydroxymethyl)aminomethane was from Fisher. Ferrous ammonium sulfate (FAS), 2-oxoglutarate (2OG) and L-ascorbic acid were from Sigma Aldrich; solutions of these were prepared freshly each day. All inhibition assays were carried out in 384-well polypropylene plates (Greiner Bio-One). PHD2 assays were performed in assay buffer (50 mM Tris. Cl pH 7.5, 50 mM NaCl). […] The final assay concentration of DMSO was kept constant at 0.5%. PHD2 protein was prepared at a concentration of 300 nM in assay buffer and 25 μl dispensed across each 384-well assay plate. The PHD2 solution was allowed to equilibrate with the inhibitors for 15 minutes at room temperature; the enzyme reaction then initiated by dispense of 25 μl of substrate (20 μM FAS, 200 µM L-ascorbic acid, 10 μM CODD peptide and 20 μM 2OG in the assay buffer. Enzyme reactions were allowed to proceed for 20 minutes at room temperature and the reaction terminated by addition of 10% formic acid (5 μl). Assay plates were then transferred to a RapidFire RF360 sampling robot (Agilent) connected to an Agilent 6530 accurate mass quadrupole-time-of-flight (Q-TOF) mass spectrometer. Assay samples were aspirated under vacuum and loaded onto a C4 solid phase extraction (SPE) cartridge. After loading the C4 SPE was washed with 0.1% formic acid in water to remove non-volatile buffer salts and then peptide was eluted from the SPE with 85% acetonitrile, 15% water containing 0.1% formic acid onto the mass spectrometer. Peptide charge states were monitored in positive mode. Ion chromatogram data were extracted for the +2 charge state and peak area data integrated using RapidFire Integrator software (Agilent). % conversion of the CODD peptide substrate to the +16 hydroxylated peptide was calculated using the equation: % conversion=100×hydroxylated/(hydroxylated+non-hydroxylated peptide). IC50 values were determined from non-linear regression plots using GraphPad prism.
Example 158—Structure activity relationship (SAR) studies for PHD inhibition SAR studies for PHD inhibition were carried out on the compounds of the invention. Compounds were screened against PHD2 using the RF-MS hydroxylation assay.
As to `O=C(NCc1ccc(-c2ccccc2)cc1)c1ccc(-n2cccn2)cc1O` [Compound 16, N-([1,1′-biphenyl]-4-ylmethyl)-2-hydroxy-4-(1H-pyrazol-1-yl)benzamide], the IC50 is more than 10 µM.
To `O=C(NCc1ccc(-c2ccccc2)cc1)c1cnc(-n2cccn2)nc1` [Compound 20, N-([1,1′-Biphenyl]-4-ylmethyl)-2-(1H-pyrazol-1-yl)pyrimidine-5-carboxamide] belongs more than 10 µM; to `O=C(NCc1ccc(-c2ccccc2)cc1)c1ccc(-n2cccn2)nc1` [Compound 22, N-([1,1′-Biphenyl]-4-ylmethyl)-6-(1H-pyrazol-1-yl) nicotinamide], more than 10 µM; to `O=C(O)c1cnn(-c2ccc(C(=O)NCc3ccc(-c4ccccc4)cc3)cn2)c1` [Compound 31, 1-(5-(([1,1′-Biphenyl]-4-ylmethyl)carbamoyl)pyridine-2-yl)-1H-pyrazole-4-carboxylic acid], 0.001 to 1 µM.
On to `O=C(O)c1cnn(-c2ccc(C(=O)NCc3ccccc3)cn2)c1` [Compound 32, 1-(5-(Benzylcarbamoyl)pyridin-2-yl)-1H-pyrazole-4-carboxylic acid], for which the concentration for half-maximal inhibition (IC50) was in the range of 1 to 10 µM.
To `O=C(NCc1ccc(-c2ccccc2)cc1)c1cnc(-n2cccn2)cc1O` [Compound 41, N-([1,1′-Biphenyl]-4-ylmethyl)-4-hydroxy-6-(1H-pyrazol-1-yl) nicotinamide] belongs 0.001 to 1 µM.
`O=C(Nc1ccc(-c2ccccc2)cc1)c1cnc(-n2cccn2)cc1O` [Compound 42, N-([1,1′-Biphenyl]-4-yl)-4-hydroxy-6-(1H-pyrazol-1-yl) nicotinamide] showed a half-maximal inhibitory concentration (IC50) of 0.001 to 1 µM.
The result for `O=C(NCc1cccc(C(F)(F)F)c1)c1cnc(-n2cccn2)cc1O` [Compound 43, 4-Hydroxy-6-(1H-pyrazol-1-yl)-N-(3-(trifluoromethyl)benzyl) nicotinamide] reads 1 to 10 µM; that for `O=C(NCC1CCCCC1)c1cnc(-n2cccn2)cc1O` [Compound 44, N-(Cyclohexylmethyl)-4-hydroxy-6-(1H-pyrazol-1-yl) nicotinamide], more than 10 µM.
`O=C(NCc1ccc(C(F)(F)F)cc1)c1cnc(-n2cccn2)cc1O` [Compound 64, 4-Hydroxy-6-(1H-pyrazol-1-yl)-N-(4-(trifluoromethyl)benzyl) nicotinamide] gave an IC50 of 0.001 to 1 µM.
The result for `O=C(NCc1cccc(-c2ccccc2)c1)c1cnc(-n2cccn2)cc1O` [Compound 65, N-([1,1′-Biphenyl]-3-ylmethyl)-4-hydroxy-6-(1H-pyrazol-1-yl) nicotinamide] reads 0.001 to 1 µM; that for `O=C(Nc1cccc(-c2ccccc2)c1)c1cnc(-n2cccn2)cc1O` [Compound 66, N-([1,1′-Biphenyl]-3-yl)-4-hydroxy-6-(1H-pyrazol-1-yl) nicotinamide], 0.001 to 1 µM.
The result for `O=C(NCc1ccc(OC(F)(F)F)cc1)c1cnc(-n2cccn2)cc1O` [Compound 67, 4-Hydroxy-6-(1H-pyrazol-1-yl)-N-(4-(trifluoromethyloxy)benzyl) nicotinamide] reads 0.001 to 1 µM.
The result for `O=C(NCc1ccc(-c2ccccc2)nc1)c1cnc(-n2cccn2)cc1O` [Compound 69, 4-Hydroxy-N-((6-phenylpyridin-3-yl)methyl)-6-(1H-pyrazol-1-yl) nicotinamide] reads 0.001 to 1 µM.
On to `O=C(NCc1ccc(-c2ccccc2)cc1)c1cnc(-n2cccn2)c(O)c1` [Compound 75, N-([1,1′-Biphenyl]-4-ylmethyl)-5-hydroxy-6-(1H-pyrazol-1-yl) nicotinamide], for which the half-maximal inhibitory concentration (IC50) lay in the range of 1 to 10 µM.
The result for `O=C(NCc1cccc(-c2ccccc2)c1)c1cnc(-n2cccn2)c(O)c1` [Compound 76, N-([1,1′-Biphenyl]-3-ylmethyl)-5-hydroxy-6-(1H-pyrazol-1-yl) nicotinamide] reads 1 to 10 µM; that for `O=C(O)c1cnn(-c2cc(O)c(C(=O)NCc3ccc(-c4ccccc4)cc3)cn2)c1` [Compound 84, 1-(5-(([1,1′-Biphenyl]-4-ylmethyl)carbamoyl)-4-hydroxypyridin-2-yl)-1H-pyrazole-4-carboxylic acid], 0.001 to 1 µM.
To `N#Cc1cnn(-c2cc(O)c(C(=O)NCc3ccc(-c4ccccc4)cc3)cn2)c1` [Compound 85, N-([1,1′-Biphenyl]-4-ylmethyl)-6-(4-cyano-1H-pyrazol-1-yl)-4-hydroxynicotinamide] belongs 0.001 to 1 µM; to `O=C(O)c1cnn(-c2ncc(C(=O)NCc3ccc(-c4ccccc4)cc3)cc2O)c1` [Compound 86, 1-(5-(([1,1′-Biphenyl]-4-ylmethyl)carbamoyl)-3-hydroxypyridin-2-yl)-1H-pyrazole-4-carboxylic acid], 0.001 to 1 µM; to `N#Cc1cnn(-c2cc(O)c(C(=O)NCc3ccc(C(F)(F)F)cc3)cn2)c1` [Compound 89, 6-(4-Cyano-1H-pyrazol-1-yl)-4-hydroxy-N-(4-(trifluoromethyl)benzyl) nicotinamide], 0.001 to 1 µM.
As to `O=C(O)c1cnn(-c2cc(O)c(C(=O)NCc3ccc(C(F)(F)F)cc3)cn2)c1` [Compound 90, 1-(4-Hydroxy-5-((4-(trifluoromethyl)benzyl)carbamoyl)pyridin-2-yl)-1H-pyrazole-4-carboxylic acid], the 50% inhibitory concentration (IC50) lay within 0.001 to 1 µM.
Take `O=C(O)c1cnn(-c2cc(O)c(C(=O)NCc3ccc(-c4ccccc4)nc3)cn2)c1` [Compound 91, 1-(4-Hydroxy-5-(((6-phenylpyridin-3-yl)methyl)carbamoyl)pyridin-2-yl)-1H-pyrazole-4-carboxylic acid]: the 50% inhibitory concentration (IC50) fell in the range of 0.001 to 1 µM.
To `COc1cc(-n2cc(C(=O)NCc3ccc(-c4ccccc4)cc3)cn2)ncc1C#N` [Compound 93, N-([1,1′-Biphenyl]-4-ylmethyl)-1-(5-cyano-4-methoxypyridin-2-yl)-1H-pyrazole-4-carboxamide] belongs more than 10 µM; to `N#Cc1cnc(-n2cc(C(=O)NCc3ccc(-c4ccccc4)cc3)cn2)cc1O` [Compound 95, N-([1,1′-Biphenyl]-4-ylmethyl)-1-(5-cyano-4-hydroxypyridin-2-yl)-1H-pyrazole-4-carboxamide], 0.001 to 1 µM; to `O=C(NCc1ccc(-c2ccccc2)cc1)c1cnn(-c2cc(O)c(C(=O)O)cn2)c1` [Compound 96, 6-(4-(([1,1′-Biphenyl]-4-ylmethyl)carbamoyl)-1H-pyrazol-1-yl)-4-hydroxynicotinic acid], 1 to 10 µM.
To `N#Cc1ccc(-n2cc(C(=O)NCc3ccc(-c4ccccc4)cc3)cn2)nc1` [Compound 97, N-([1,1′-Biphenyl]-4-ylmethyl)-1-(5-cyanopyridin-2-yl)-1H-pyrazole-4-carboxamide] belongs more than 10 µM; to `O=C(NCc1ccc(-c2ccccc2)cc1)c1cnn(-c2cc(O)ccn2)c1` [Compound 99, N-([1,1′-Biphenyl]-4-ylmethyl)-1-(4-hydroxypyridin-2-yl)-1H-pyrazole-4-carboxamide], 1 to 10 µM; to `O=C(O)c1ccc(-n2cc(C(=O)NCc3ccc(-c4ccccc4)cc3)cn2)nc1` [Compound 101, 6-(4-(([1,1′-Biphenyl]-4-ylmethyl)carbamoyl)-1H-pyrazol-1-yl) nicotinic acid], 1 to 10 µM.
On to `O=C(O)c1ccnc(-n2cc(C(=O)NCc3ccc(-c4ccccc4)cc3)cn2)c1` [Compound 103, 2-(4-(([1,1′-Biphenyl]-4-ylmethyl)carbamoyl)-1H-pyrazol-1-yl) isonicotinic acid], for which the IC50 was more than 10 µM.
To `O=C(Nc1ccc(-c2ccccc2)cc1)c1cnn(-c2cc(O)ccn2)c1` [Compound 108, N-([1,1′-Biphenyl]-4-yl)-1-(4-hydroxypyridin-2-yl)-1H-pyrazole-4-carboxamide] belongs more than 10 µM; to `O=C(NCc1cccc(-c2ccccc2)c1)c1cnn(-c2cc(O)ccn2)c1` [Compound 109, N-([1,1′-Biphenyl]-3-ylmethyl)-1-(4-hydroxypyridin-2-yl)-1H-pyrazole-4-carboxamide], 1 to 10 µM.
For the compound `COc1cc(C(=O)NCc2ccc(-c3ccccc3)cc2)cnc1-n1cc(C#N)cn1` [Compound 124, N-([1,1′-biphenyl]-4-ylmethyl)-6-(4-cyano-1H-pyrazol-1-yl)-5-methoxynicotinamide], the half-maximal inhibitory concentration (IC50) was 0.001 to 1 µM.
The result for `N#Cc1cnn(-c2ncc(C(=O)NCc3ccc(-c4ccccc4)cc3)cc2O)c1` [Compound 125, N-([1,1′-biphenyl]-4-ylmethyl)-6-(4-cyano-1H-pyrazol-1-yl)-5-hydroxynicotinamide] reads 0.001 to 1 µM.

The term IC50 denotes the midpoint of a concentration-inhibition curve. Low values mean greater potency, high ones weaker potency.
